In US12617752B2, “Rapidly metabolized lipid compound” (Beijing Jitai Life Sciences Ltd, priority 2023, dated 2026):

Experiments:
[1] = tested on: C57BL/6 mice; experiment: In vivo delivery of luciferase mRNA lipid nanoparticles in mice (bioluminescence imaging); conditions: intravenous, single dose 0.5 mg/kg luciferase mRNA
Description: The delivery effect and safety of nanoparticles encapsulated with luciferase mRNA (Trilink, L-7202) in mice were evaluated. The test mice were SPF-grade C57BL/6 mice, female, 6-8 weeks old, weighing 18-22 g, and were purchased from SPF (Beijing) Biotechnology Co., Ltd. All animals were acclimatized for more than 7 days prior to the experiment, and had free access to food and water during the experiment. The conditions include alternating light and dark for 12/12 h, the indoor temperature of 20-26° C. and the humidity of 40-70%. The mice were randomly grouped. The lipid nanoparticles encapsulated with luciferase mRNA prepared above were injected into mice by intravenous administration at a single dose of 0.5 mg/kg mRNA, and the mice were subjected to in vivo bioluminescence assay using a Small Animal In Vivo Imaging System (IVIS LUMINA III, purchased from PerkinElmer) at 6 h after administration. The assay was performed as follows: D-luciferin solution was prepared in saline at a concentration of 15 mg/mL, and each mouse was given the substrate by intraperitoneal injection. At ten minutes after administration of the substrate, the mice were anesthetized in an anesthesia chamber with isoflurane at a concentration of 2.5%. The anesthetized mice were placed in IVIS for fluorescence imaging, and data acquisition and analysis were performed on the concentrated distribution area of fluorescence.
The in vivo delivery efficiency of lipid nanoparticle carriers was expressed as the mean values of fluorescence intensity and total photon count in different animals within the same subject group, as shown in Table 5-Table 11. Higher values of fluorescence intensity and total photon count indicate higher in vivo delivery efficiency of this mRNA fragment by lipid nanoparticles. The lipid nanoparticles containing the cationic lipids of the present disclosure have good in vivo delivery efficiency.

[2] = Encapsulation efficiency of lipid nanoparticles (Quant-it RiboGreen RNA Assay); type: physicochemical; conditions: lipid nanoparticles with luciferase mRNA
Description: (§1) Lipid nanoparticles were prepared by (1) dissolving and mixing ionizable lipid compounds, cholesterol, phospholipids and polyethylene glycolated lipids in ethanol at (molar percentages) 50%, 38.5%, 10% and 1.5%, respectively; (2) dissolving the mRNA active ingredient in 25 mM sodium acetate solution (pH=4.5); (3) using an automated high-throughput microfluidic system to mix the organic phase containing the lipid mixture and the aqueous phase containing the mRNA component in the flow ratio range of 1:1 to 1:4 at a mixing speed of 10 mL/min to 18 mL/min; (4) the prepared lipid nanoparticles (N/P ratio=6) were diluted with phosphate buffer solution and the nanoparticle solutions were ultrafiltered to the original preparation volume using ultrafiltration tubes (purchased from Millipore) with a cut-off molecular weight of 30 kDa; and (5) the obtained nanoparticles were filtered through a sterile 0.2 μm filter membrane and then stored in a sealed glass vial at low temperature.
(§2) The particle size and particle size dispersity index (PDI) of the prepared lipid nanoparticles were measured using a Zetasizer Pro (purchased from Malvern Instruments Ltd) and a DynaPro NanoStar (purchased from Wyatt) dynamic light scattering instrument. The degree of RNA encapsulation by lipid nanoparticles was characterized by the Encapsulation Efficiency %, which reflects the degree of binding of lipid nanoparticles to RNA fragments. This parameter was measured by the method of Quant-it™ RiboGreen RNA Assay (purchased from Invitrogen). Lipid nanoparticle samples were diluted in TE buffer (10 mM Tris-HCl, 1 mM EDTA, pH=7.5). A portion of the sample solution was removed, to which 0.5% Triton (Triton X-100) was added, and then allowed to stand at 37° C. for 30 minutes. Immediately after the addition of RIBOGREEN® reaction solution, the fluorescence values were read on a Varioskan LUX multifunctional microplate reader (purchased from Thermofisher) at 485 nm for absorption and 528 nm for emission to give the encapsulation efficiency values.

[3] = Particle size and PDI of lipid nanoparticles by dynamic light scattering; type: physicochemical; conditions: lipid nanoparticles with luciferase mRNA; ionizable lipid/cholesterol/DSPC/DMG-PEG2000 50/38.5/10/1.5 mol%
Description: as §1, §2

| Encapsulation efficiency (%) [2] [%] | Particle size (nm) [3] [nm] | Particle-size distribution (PDI) [3] | Structure (SMILES) | Total photon count in vivo at 6 hours after administration (Total Flux) [1] |
| --- | --- | --- | --- | --- |
| 95.08 | 120.90 | 0.18 | CCCCCCCCCOC(=O)C(C)(C)CCCCCCN(CCO)CCCCCCOC(=O)OCC(CCCCCCC)CCCCCCC [40a] | 2.03E+11 |
| 96.74 | 97.10 | 0.11 | CCCCCCCCCCC(=O)OCC(C)(C)CCCCCN(CCCCCCCC(=O)OC(CCCCCCCCC)CCCCCCCCC)C(=O)SCCCCN(C)C [40b] | 3.70E+10 |
| 95.26 | 121.89 | 0.08 | CCCCCCCCCC(=O)OCC1(CCCCCN(CCCCCCCC(=O)OCC(CCCCCCC)CCCCCCC)C(=O)SCCCN(C)C)CC1 [43b] | 1.29E+10 |
| 96.84 | 92.67 | 0.20 | CCCCCCCCCOC(=O)OCCCCCCN(CCO)CCCCC(C)(C)CCC(=O)OCC(CCCCCCC)CCCCCCC [44a] | 1.06E+11 |
| 97.45 | 92.63 | 0.15 | CCCCCCCCCC(=O)OCC1(CCCCCN(CCCCCCCC(=O)OCC(CCCCCCC)CCCCCCC)C(=O)SCCCCN(C)C)CC1 [44b] | 1.16E+10 |
| 94.63 | 114.73 | 0.15 | CCCCCCCCCOC(=O)CC(C)(C)CCCCCN(CCO)CCCCCCOC(=O)OCC(CCCCCCC)CCCCCCC [45a] | 1.22E+11 |
| 93.03 | 110.83 | 0.16 | CCCCCCCCCOC(=O)CCC(C)(C)CCCCN(CCO)CCCCCCOC(=O)OCC(CCCCCCC)CCCCCCC [46a] | 9.06E+10 |
| 97.78 | 98.91 | 0.09 | CCCCCCCCCCC(=O)OCC(C)(C)CCCCCN(CCCCCCOC(=O)OC(CCCCCCCCC)CCCCCCCCC)C(=O)SCCCCN(C)C [46b] | 2.44E+10 |
| 93.23 | 104.47 | 0.21 | CCCCCCCCCOC(=O)CCCCC(C)(C)CCN(CCO)CCCCCCOC(=O)OCC(CCCCCCC)CCCCCCC [47a] | 3.10E+10 |
| 96.13 | 81.22 | 0.16 | CCCCCCCCCCOC(=O)OCCCCCCN(CCO)CCCCCCC(C)(C)C(=O)OC(CCCCCCCCC)CCCCCCCCC [48a] | 8.16E+10 |
| 98.67 | 78.03 | 0.12 | CCCCCCCC(CCCCCCC)COC(=O)CCCCC(C)(C)CCN(CCO)CCCCCCOC(=O)OCC(CCCCCCC)CCCCCCC [50a] | 2.86E+10 |
| 94.81 | 92.08 | 0.15 | CCCCCCCCCOC(=O)CCCCCCCN(CCO)CCCCC(C)(C)COC(=O)OCC(CCCCCCC)CCCCCCC [51a] | 3.11E+10 |
| 95.92 | 91.96 | 0.12 | CCCCCCCCCC(=O)OCC(C)(C)CCCCCN(CCO)CCCCCCCC(=O)OC(CCCCCCCCC)CCCCCCCCC [51b] | 7.60E+10 |
| 90.84 | 105.97 | 0.06 | CCCCCCCCCC(=O)OCC(C)(C)CCCCCN(CCCCO)CCCCCCCC(=O)OC(CCCCCCCCC)CCCCCCCCC [52b] | 1.01E+11 |
| 90.96 | 124.00 | 0.23 | CCCCCCCCCCCSC(=O)CCCCCN(CCO)CCCCCCC(C)(C)C(=O)OC(CCCCCCCC)CCCCCCCC [53a] | 9.04E+10 |
| 91.92 | 125.03 | 0.42 | CCCCCCCCCC(=O)OCC1(CCCCCN(CCO)CCCCCCCC(=O)OC(CCCCCCCCC)CCCCCCCCC)CC1 [53b] | 1.00E+11 |
| 96.69 | 81.37 | 0.17 | CCCCCCCCCCC(=O)OCCC(C)(C)CCCCN(CCO)CCCCCCCC(=O)OC(CCCCCCCCC)CCCCCCCCC [54b] | 5.71E+10 |

| Structure (SMILES) | Encapsulation efficiency (%) [2] [%] | Particle size (nm) [3] [nm] | Particle-size distribution (PDI) [3] | Total photon count in vivo at 6 hours after administration (Total Flux) [1] |
| --- | --- | --- | --- | --- |
| CCCCCCCCCOC(=O)OCCCCCCN(CCCCO)CCCCCCC(C)(C)C(=O)OCCCC(CCCCC)CCCCC [39a] | 93.59 | 144.83 | 0.08 | 2.24E+10 |
| CCCCCCCCCOC(=O)C(C)(C)CCCCCCN(CCO)CCCCCCOC(=O)OCCC(CCCCCC)CCCCCC [41a] | 94.51 | 114.03 | 0.13 | 1.11E+11 |
| CCCCCCCCCOC(=O)C(C)(C)CCCCCCN(CCO)CCCCCCOC(=O)OCCCC(CCCCC)CCCCC [42a] | 95.54 | 104.13 | 0.17 | 3.47E+10 |
| CCCCCCCCCOC(=O)C(C)(C)CCCCCCN(CCO)CCCCCCOC(=O)OCCCCC(CCCC)CCCC [43a] | 97.03 | 105.63 | 0.15 | 2.23E+10 |
| CCCCCCCCCC(=O)OCC(C)(C)CCCCCN(CCCCCCOC(=O)OCC(CCCCCCC)CCCCCCC)C(=O)SCCCN(C)C [47b] | 97.27 | 122.40 | 0.07 | 2.84E+10 |
| CCCCCCCCCCCOC(=O)OCCCCCCN(CCO)CCCCCCC(C)(C)C(=O)OC(CCCCCCCCCC)CCCCCCCCCC [49a] | 94.85 | 100.56 | 0.14 | 2.28E+10 |
| CCCCCCCCOC(=O)OCC(C)(C)CCCCCN(CCCCCCOC(=O)CC(CCCCCCCC)CCCCCCCC)C(=O)SCCCCN(C)C [50b] | 98.50 | 98.36 | 0.13 | 1.01E+10 |
| CCCCCCCCCSC(=O)CCCCCCCN(CCO)CCCCCCC(C)(C)C(=O)OC(CCCCCCCC)CCCCCCCC [52a] | 93.30 | 79.40 | 0.09 | 2.58E+10 |
| CCCCCCC#CCOC(=O)CCCCCCCN(CCO)CCCCCCC(C)(C)C(=O)OC(CCCCCCCC)CCCCCCCC [54a] | 91.34 | 87.37 | 0.14 | 1.32E+10 |
